Test results: article PMC8927846 (Materials Today Bio, 2022)

Columns and labels:
hiPS-BMEC = assay: Confocal imaging of uptake and colocalization in hiPS-BMEC; format: cell-based, human; details: 125 nM AF 488-Tf, 1250 nM unlabeled Tf, 1 h, 37 °C
HBEC = assay: Confocal imaging of uptake in HBEC; format: cell-based, human; details: 125 nM AF 488-Tf, 1250 nM unlabeled Tf, 1 h, 37 °C
[1] = system: hiPS-BMEC (human iPS-derived BMEC-like cells) monolayer; assay: Transwell permeability across hiPS-BMEC monolayer; format: in vitro ADME; details: cys-T7 versus cys-Tfr-T12 peptide
[2] = target: transferrin receptor (TfR); details: read-out: Dissociation constant Kd to TfR; cited from earlier work

Substance | Kd [2] | further results
AF 488-Tf: Alexa Fluor 488 labeled transferrin |  | Internalization on co-incubation with 10-fold excess of unlabeled Tf (hiPS-BMEC): reduced internalization; Internalization on co-incubation with 10-fold excess of unlabeled Tf (HBEC): reduced internalization
CHAIYPRH [cys-T7 peptide] |  | Permeability compared between the two peptides [1]: higher permeability
HAIYPRH [T7 peptide] | 10 nM | 
THRPPMWSPVWP [Tfr-T12 peptide] | 15 nM | 
Tf: unlabeled transferrin, the native ligand of TfR | 2.8 nM | 
